Results as given in patent US11814416B2, “Polypeptide capable of passing through blood-brain barrier” (SHENZHEN RUIJIAN […] COMPANY, priority 2018, dated 2023).
Where two headings read alike, the source gives them in different places.

Test system: CaV2.2 channels (α1B, α2δ1 and β3)
Assay type: cell-based, Rat
Details: for IC50: read-out: half inhibitory concentration for inhibition of CaV2.2 channel

Row | Sequence | reduction of the peak Ca2+ current (1 μM) [%] | IC50 [nM] | reduction of the peak Ca2+ current [%]
1 | CKGKGAKCSRLMYDCCTGSCRSGKCYGRKKRRQRRR [MVIIA-a] | 89.45±0.752 | 413 | 
2 | CKGKGAKCSRLMYDCCTGSCRSGKCGGYGRKKRRQRRR [MVIIA-c] | 98.81±0.427 | 237 | 
3 | CKGKGAKCSRLMYDCCTGSCRSGKCGYGRKKRRQRRR [MVIIA-b] |  | 379 | 91.70±1.477
4 | CKGKGAKCSRLMYDCCTGSCRSGKCGGGYGRKKRRQRRR [MVIIA-d] | 84.26±3.127 | 345 | 
